Assay results taken from US10730872B2, “Pesticidally active heterocyclic derivatives with sulphur containing sustitutents” (SYNGENTA PARTICIPATIONS AG, priority 2015, dated 2020).

How the values were obtained:
Assay type in all cases: in vivo
Myzus persicae [1] = test: Myzus persicae (Green Peach Aphid). Systemic Activity; conditions: 144 h, test rate of 24 ppm, roots of infested pea seedlings in test solution, 6 days
Experimental: Roots of pea seedlings infested with an aphid population of mixed ages were placed directly into aqueous test solutions prepared from 10,000 DMSO stock solutions. The samples were assessed for mortality 6 days after placing seedlings into test solutions.

Spodoptera littoralis [2] = test: Spodoptera littoralis (Egyptian Cotton Leaf Worm), sprayed cotton leaf discs; conditions: foliar, 72 h, application rate of 200 ppm, L1 larvae, 3 days after infestation
In short: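 Cotton leaf discs on agar sprayed with aqueous dilutions of 10,000 ppm DMSO stocks, dried, then infested with five L1 larvae. Mortality, anti-feeding and growth inhibition scored against untreated discs 3 days after infestation. Control recorded when any one category exceeds the untreated sample.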

Aedes aegypti = test: Aedes Aegypti (Yellow Fever Mosquito); conditions: 200 ppm in ethanol, dry deposit in 12 well plates, adult females, after 48 h and/or 24 h
Experimental: Test solutions, at an application rate of 200 ppm in ethanol, were applied to 12 well tissue culture plates. Once the deposits were dry, five, two to five day old adult female Aedes aegypti were added to each well, and sustained with a 10% sucrose solution in a cotton wool plug. Assessment of knockdown was made one hour after introduction, and mortality was assessed at 24 and 48 hours after introduction.

Spodoptera littoralis [3] = test: Spodoptera littoralis (Egyptian Cotton Leaf Worm), uptake by lettuce roots from agar; conditions: 144 h, test rate of 12.5 ppm, mixed with agar, absorbed by lettuce roots, Spodoptera eggs, 6 days after infestation, read-out: effect in at least one of the three categories (mortality, anti-feeding, or growth inhibition)
Source text: Test compounds were applied by pipette from 10,000 ppm DMSO stock solutions into 24-well plates and mixed with agar. Lettuce seeds were placed onto the agar and the multi well plate was closed by another plate which contained also agar. After 7 days the compound was absorbed by the roots and the lettuce grew into the lid plate. The lettuce leaves were then cut off into the lid plate. Spodoptera eggs were pipetted through a plastic stencil onto a humid gel blotting paper and the lid plate was closed with it. The samples were assessed for mortality, anti-feedant effect and growth inhibition in comparison to untreated samples 6 days after infestation.

Myzus persicae [4] = test: Myzus persicae (Green Peach Aphid): Feeding/Contact Activity; conditions: foliar, 144 h, application rate of 200 ppm, sprayed sunflower leaf discs, aphid population of mixed ages, 6 days after infestation
Experimental: Sunflower leaf discs were placed onto agar in a 24-well microtiter plate and sprayed with aqueous test solutions prepared from 10,000 ppm DMSO stock solutions. After drying, the leaf discs were infested with an aphid population of mixed ages. The samples were assessed for mortality 6 days after infestation.

Diabrotica balteata = Diabrotica balteata (Corn Root Worm); conditions: 96 h, application rate of 200 ppm, sprayed maize sprouts, L2 larvae, 4 days after infestation, read-out: effect in at least one of the two categories (mortality or growth inhibition)
Experimental: Maize sprouts placed onto an agar layer in 24-well microtiter plates were treated with aqueous test solutions prepared from 10,000 ppm DMSO stock solutions by spraying. After drying, the plates were infested with L2 larvae (6 to 10 per well). The samples were assessed for mortality and growth inhibition in comparison to untreated samples 4 days after infestation.

Tetranychus urticae = Tetranychus urticae (Two-Spotted Spider Mite): Feeding/Contact Activity; conditions: foliar, 192 h, application rate of 200 ppm, sprayed bean leaf discs, mixed population (mobile stages), 8 days after infestation
Experimental: Bean leaf discs on agar in 24-well microtiter plates were sprayed with aqueous test solutions prepared from 10,000 ppm DMSO stock solutions. After drying the leaf discs were infested with a mite population of mixed ages. The samples were assessed for mortality on mixed population (mobile stages) 8 days after infestation.

Plutella xylostella = Plutella xylostella (Diamond Back Moth); conditions: 120 h, application rate of 200 ppm, artificial diet, L2 larvae, 5 days after infestation, read-out: effect in at least one of the two categories (mortality or growth inhibition)
Experimental: 24-well microtiter plates with artificial diet were treated with aqueous test solutions prepared from 10,000 ppm DMSO stock solutions by pipetting. After drying, the plates were infested with L2 larvae (10 to 15 per well). The samples were assessed for mortality and growth inhibition in comparison to untreated samples 5 days after infestation.

Euschistus heros = Euschistus heros (Neotropical Brown Stink Bug); conditions: 120 h, application rate of 200 ppm, sprayed soybean leaves, N2 nymphs, 5 days after infestation, read-out: effect in at least one of the two categories (mortality or growth inhibition)
Experimental: Soybean leaves on agar in 24-well microtiter plates were sprayed with aqueous test solutions prepared from 10,000 ppm DMSO stock solutions. After drying the leaves were infested with N2 nymphs. The samples were assessed for mortality and growth inhibition in comparison to untreated samples 5 days after infestation.

Bemisia tabaci = Bemisia tabaci (Cotton White Fly): Feeding/Contact Activity; conditions: foliar, 144 h, application rate of 200 ppm, sprayed cotton leaf discs, adult white flies, 6 days after incubation
Experimental: Cotton leaf discs were placed on agar in 24-well microtiter plates and sprayed with aqueous test solutions prepared from 10,000 ppm DMSO stock solutions. After drying the leaf discs were infested with adult white flies. The samples were checked for mortality 6 days after incubation.

[5] = tested on: Frankliniella occidentalis; test: Frankliniella occidentalis (Western Flower Thrips): Feeding/Contact Activity; conditions: foliar, 168 h, application rate of 200 ppm, sprayed sunflower leaf discs, population of mixed ages, 7 days after infestation
Experimental: Sunflower leaf discs were placed on agar in 24-well microtiter plates and sprayed with aqueous test solutions prepared from 10,000 DMSO stock solutions. After drying the leaf discs were infested with a Frankliniella population of mixed ages. The samples were assessed for mortality 7 days after infestation.

CCS(=O)(=O)c1ccc(NC2CC2)nc1-c1nc2cc(C(F)(F)F)n(C)c(=O)c2n1C [Compound A2, 2-[6-(cyclopropylamino)-3-ethylsulfonyl-2-pyridyl]-3,5-dimethyl-6-(trifluoromethyl)imidazo[4,5-c]pyridin-4-one]
≥ 80%: mortality at 24 ppm (Myzus persicae [1]) | percent control (mortality, anti-feeding effect or growth inhibition) at 200 ppm (Spodoptera littoralis [2]) | pest or weed control at 200 ppm (Aedes aegypti) | percent effect (mortality, anti-feeding or growth inhibition) at 12.5 ppm (Spodoptera littoralis [3]) | mortality at 200 ppm (Myzus persicae [4]) | effect mortality or growth inhibition at 200 ppm (Diabrotica balteata) | mortality at 200 ppm (Tetranychus urticae) | percent effect (mortality or growth inhibition) at 200 ppm (Plutella xylostella) | percent effect (mortality or growth inhibition) at 200 ppm (Euschistus heros)

CCn1c(C(F)(F)F)cc2nc(-c3nc(N)ccc3S(=O)(=O)CC)n(C)c2c1=O [Compound A6, 2-(6-amino-3-ethylsulfonyl-2-pyridyl)-5-ethyl-3-methyl-6-(trifluoromethyl)imidazo[4,5-c]pyridin-4-one]
≥ 80%: mortality at 24 ppm (Myzus persicae [1]) | percent control (mortality, anti-feeding effect or growth inhibition) at 200 ppm (Spodoptera littoralis [2]) | pest or weed control at 200 ppm (Aedes aegypti) | percent effect (mortality, anti-feeding or growth inhibition) at 12.5 ppm (Spodoptera littoralis [3]) | mortality at 200 ppm (Bemisia tabaci) | mortality at 200 ppm (Myzus persicae [4]) | effect mortality or growth inhibition at 200 ppm (Diabrotica balteata) | percent effect (mortality or growth inhibition) at 200 ppm (Plutella xylostella) | percent effect (mortality or growth inhibition) at 200 ppm (Euschistus heros)

CCn1c(C(F)(F)F)cc2nc(-c3nc(NC(=O)C4CC4)ccc3S(=O)(=O)CC)n(C)c2c1=O [Compound A8, N-[6-[5-ethyl-3-methyl-4-oxo-6-(trifluoromethyl)imidazo[4,5-c]pyridin-2-yl]-5-ethylsulfonyl-2-pyridyl]cyclopropanecarboxamide]
≥ 80%: percent control (mortality, anti-feeding effect or growth inhibition) at 200 ppm (Spodoptera littoralis [2]) | percent effect (mortality, anti-feeding or growth inhibition) at 12.5 ppm (Spodoptera littoralis [3]) | mortality at 200 ppm (Bemisia tabaci) | mortality at 200 ppm (Myzus persicae [4]) | effect mortality or growth inhibition at 200 ppm (Diabrotica balteata) | percent effect (mortality or growth inhibition) at 200 ppm (Plutella xylostella) | percent effect (mortality or growth inhibition) at 200 ppm (Euschistus heros) | mortality at 200 ppm [5]

CCn1c(C(F)(F)F)cc2nc(-c3nc(N(C)C(=O)C4CC4)ccc3S(=O)(=O)CC)n(C)c2c1=O [Compound A10, N-[6-[5-ethyl-3-methyl-4-oxo-6-(trifluoromethyl)imidazo[4,5-c]pyridin-2-yl]-5-ethylsulfonyl-2-pyridyl]-N-methyl-cyclopropanecarboxamide]
≥ 80%: mortality at 24 ppm (Myzus persicae [1]) | percent control (mortality, anti-feeding effect or growth inhibition) at 200 ppm (Spodoptera littoralis [2]) | percent effect (mortality, anti-feeding or growth inhibition) at 12.5 ppm (Spodoptera littoralis [3]) | mortality at 200 ppm (Bemisia tabaci) | mortality at 200 ppm (Myzus persicae [4]) | effect mortality or growth inhibition at 200 ppm (Diabrotica balteata) | percent effect (mortality or growth inhibition) at 200 ppm (Plutella xylostella) | percent effect (mortality or growth inhibition) at 200 ppm (Euschistus heros) | mortality at 200 ppm [5]

CCn1c(C(F)(F)F)cc2nc(-c3ncc(N(C)C4CC4)cc3S(=O)(=O)CC)n(C)c2c1=O [Compound A11, 2-[5-[cyclopropyl(methyl)amino]-3-ethylsulfonyl-2-pyridyl]-5-ethyl-3-methyl-6-(trifluoromethyl)imidazo[4,5-c]pyridin-4-one]
≥ 80%: percent control (mortality, anti-feeding effect or growth inhibition) at 200 ppm (Spodoptera littoralis [2]) | pest or weed control at 200 ppm (Aedes aegypti) | percent effect (mortality, anti-feeding or growth inhibition) at 12.5 ppm (Spodoptera littoralis [3]) | mortality at 200 ppm (Myzus persicae [4]) | effect mortality or growth inhibition at 200 ppm (Diabrotica balteata) | percent effect (mortality or growth inhibition) at 200 ppm (Plutella xylostella) | percent effect (mortality or growth inhibition) at 200 ppm (Euschistus heros) | mortality at 200 ppm [5]

CCn1c(C(F)(F)F)cc2nc(-c3nc(NC4CC4)ccc3S(=O)(=O)CC)n(C)c2c1=O [Compound A30, 2-[6-(cyclopropylamino)-3-ethylsulfonyl-2-pyridyl]-5-ethyl-3-methyl-6-(trifluoromethyl)imidazo[4,5-c]pyridin-4-one]
≥ 80%: mortality at 24 ppm (Myzus persicae [1]) | percent control (mortality, anti-feeding effect or growth inhibition) at 200 ppm (Spodoptera littoralis [2]) | pest or weed control at 200 ppm (Aedes aegypti) | mortality at 200 ppm (Bemisia tabaci) | mortality at 200 ppm (Myzus persicae [4]) | effect mortality or growth inhibition at 200 ppm (Diabrotica balteata) | mortality at 200 ppm (Tetranychus urticae) | percent effect (mortality or growth inhibition) at 200 ppm (Plutella xylostella) | percent effect (mortality or growth inhibition) at 200 ppm (Euschistus heros)

CCn1c(C(F)(F)F)cc2nc(-c3nc(N)c(Br)cc3S(=O)(=O)CC)n(C)c2c1=O [Compound A39, 2-(6-amino-5-bromo-3-ethylsulfonyl-2-pyridyl)-5-ethyl-3-methyl-6-(trifluoromethyl)imidazo[4,5-c]pyridin-4-one]
≥ 80%: percent control (mortality, anti-feeding effect or growth inhibition) at 200 ppm (Spodoptera littoralis [2]) | pest or weed control at 200 ppm (Aedes aegypti) | percent effect (mortality, anti-feeding or growth inhibition) at 12.5 ppm (Spodoptera littoralis [3]) | mortality at 200 ppm (Bemisia tabaci) | mortality at 200 ppm (Myzus persicae [4]) | effect mortality or growth inhibition at 200 ppm (Diabrotica balteata) | percent effect (mortality or growth inhibition) at 200 ppm (Plutella xylostella) | percent effect (mortality or growth inhibition) at 200 ppm (Euschistus heros)

CCS(=O)(=O)c1cc(Cl)c(N)nc1-c1nc2cc(C(F)(F)F)n(C3CC3)c(=O)c2n1C [Compound A43, 2-(6-amino-5-chloro-3-ethylsulfonyl-2-pyridyl)-5-cyclopropyl-3-methyl-6-(trifluoromethyl)imidazo[4,5-c]pyridin-4-one]
≥ 80%: mortality at 24 ppm (Myzus persicae [1]) | percent control (mortality, anti-feeding effect or growth inhibition) at 200 ppm (Spodoptera littoralis [2]) | percent effect (mortality, anti-feeding or growth inhibition) at 12.5 ppm (Spodoptera littoralis [3]) | mortality at 200 ppm (Bemisia tabaci) | mortality at 200 ppm (Myzus persicae [4]) | effect mortality or growth inhibition at 200 ppm (Diabrotica balteata) | percent effect (mortality or growth inhibition) at 200 ppm (Plutella xylostella) | percent effect (mortality or growth inhibition) at 200 ppm (Euschistus heros) | mortality at 200 ppm [5]

CCS(=O)(=O)c1cc(C2CC2)c(N)nc1-c1nc2cc(C(F)(F)F)n(C3CC3)c(=O)c2n1C [Compound A48, 2-(6-amino-5-cyclopropyl-3-ethylsulfonyl-2-pyridyl)-5-cyclopropyl-3-methyl-6-(trifluoromethyl)imidazo[4,5-c]pyridin-4-one]
≥ 80%: mortality at 24 ppm (Myzus persicae [1]) | percent control (mortality, anti-feeding effect or growth inhibition) at 200 ppm (Spodoptera littoralis [2]) | mortality at 200 ppm (Bemisia tabaci) | mortality at 200 ppm (Myzus persicae [4]) | effect mortality or growth inhibition at 200 ppm (Diabrotica balteata) | mortality at 200 ppm (Tetranychus urticae) | percent effect (mortality or growth inhibition) at 200 ppm (Plutella xylostella) | percent effect (mortality or growth inhibition) at 200 ppm (Euschistus heros) | mortality at 200 ppm [5]

CCS(=O)(=O)c1cc(C#N)c(N)nc1-c1nc2cc(C(F)(F)F)n(C3CC3)c(=O)c2n1C [Compound A50, 2-(6-amino-5-cyano-3-ethylsulfonyl-2-pyridyl)-5-cyclopropyl-3-methyl-6-(trifluoromethyl)imidazo[4,5-c]pyridin-4-one]
≥ 80%: mortality at 24 ppm (Myzus persicae [1]) | percent control (mortality, anti-feeding effect or growth inhibition) at 200 ppm (Spodoptera littoralis [2]) | percent effect (mortality, anti-feeding or growth inhibition) at 12.5 ppm (Spodoptera littoralis [3]) | mortality at 200 ppm (Myzus persicae [4]) | effect mortality or growth inhibition at 200 ppm (Diabrotica balteata) | percent effect (mortality or growth inhibition) at 200 ppm (Plutella xylostella) | percent effect (mortality or growth inhibition) at 200 ppm (Euschistus heros) | mortality at 200 ppm [5]
